From patent publication US20190298740A1, “METHODS AND COMPOSITIONS FOR TREATING HALLUCINATIONS AND CONDITIONS RELATED TO THE SAME” (Enterin, Inc., priority 2018, published 2019)
Values joined by “and” are separate entries in the source; they are usually repeats but may differ in a detail not shown here. Equal values may be shown once. Read-outs that look alike come from different tables or passages of the source.

Experiments:
[1] = Pharmacokinetics of orally administered squalamine (ENT-01), Phase 2 trial; format: in vivo; conditions: human; for half-life / Cmax / AUC(0-t) / Tmax: po; for Cmax: mean, approximate; for Tmax: read-out: Tmax (median value)
Experimental: PK data were collected on the 10 patients enrolled in Stage 1 and 10 patients enrolled in Stage 2 to determine the extent of systemic absorption. In Stage 1, PK data were obtained at each visit, pre-medication, at 1, 2, 4, 8 and 24 hours (Table 11). In Stage 2, PK was measured on days 1 and 6 of the randomization period pre-medication, at 1, 2, 4 and 8 hours (Table 12).
The mean Cmax, Tmax and T1/2 and AUC of the squalamine ion following squalamine (ENT-01) oral dosing for Stage 1 patients. The PK analyses are only approximate, as the lower limit of the validated concentration range was 10 ng/ml; most of the measured concentrations fell below that value. The mean Cmax, Tmax and T1/2 and AUC of the squalamine ion following squalamine (ENT-01) oral dosing for Stage 2 patients. The PK analyses are only approximate, as the lower limit of the validated concentration range was 0.5 ng/ml.

[2] = test system: patients with PD and constipation; assay: Bowel function (prokinetic response, stool diary indices), Phase 2 trial; format: in vivo, human; conditions: for Cumulative prokinetic response rate (CSBM within 24 hours of dosing): Stage 1, single dose; for Prokinetic response rate (CSBM within 24 hours of dosing on at least 2 of 3 days): Stage 2, daily dosing; for CSBM, weekly average: baseline 1.2 (0.90); for PAC-SYM: baseline 1.3 (0.45); for SBM, weekly average: baseline 2.6 (1.45)
Experimental: Following successful screening, all subjects underwent a 14-day run-in period where the degree of constipation was assessed through a validated daily log (Zinsmeister et al. 2013) establishing baseline CSBMs/week. Subjects with an average of <3 CSBMs/week proceeded to dosing.
Tolerability limits included diarrhea or vomiting.
In Stage 2, 34 patients were evaluated.
The primary efficacy outcome variable was whether or not a subject was a “success” or “failure”. This is an endpoint based on subject diary entries for the “fixed dose” period prior to the endpoint assessment defined as average complete stool frequency increase by 1 or more over baseline, or 3 or more complete spontaneous stools/week. The subject was deemed a “success” if s/he met one or more of the criteria listed above, otherwise the subject was deemed a “failure”. The primary analysis was based on all subjects with a baseline assessment and an assessment at the end of the “fixed-dose” period and was a comparison of the proportion of successes with 0.10 (the null hypothesis corresponding to no treatment effect).

αS = αS (Homo sapiens, UniProt P37840); conditions: in vitro; cited from earlier work
[3] = in vivo, 175 mg, Stage 1, 175 mg oral, 7 patients
[4] = in vivo, 175 mg, Stage 2, 175 mg oral daily, 5 patients (2 visits each)
[5] = plasma, 25 mg, Stage 1, 25 mg oral, 9 patients
[6] = plasma, 75 mg, Stage 1, 75 mg oral, 9 patients
[7] = plasma, 75 mg, Stage 2, 75 mg oral daily, 1 patient (2 visits)
[8] = plasma, 100 mg, Stage 1, 100 mg oral, 9 patients
[9] = plasma, 125 mg, Stage 1, 125 mg oral, 9 patients
[10] = plasma, 200 mg, Stage 1, 200 mg oral, 6 patients
[11] = Stage 2, n = 34, fixed dose, mean (SD)

CC(C)[C@@H](CC[C@@H](C)[C@H]1CC[C@H]2[C@@H]3[C@H](O)C[C@H]4C[C@@H](NCCCNCCCCN)CC[C@]4(C)[C@H]3CC[C@]12C)OS(=O)(=O)O (single isomer, unassigned) [squalamine (ENT-01)]
half-life ([1]; in vivo, 150 mg, Stage 1, 150 mg oral, n = 4, read-out: T½ (converted)): 336 min
Cmax [1, 3]: 10.3 ng/mL
AUC(0-t) ([1]; in vivo, 175 mg, Stage 1, 175 mg oral, 7 patients, read-out: AUC0-8hr): 49.7 ng·h/mL
Tmax [1, 3]: 2 h
half-life ([1]; in vivo, 175 mg, Stage 1, 175 mg oral, n = 6, read-out: T½ (converted)): 546 min
Cmax [1, 4]: 11.8 ng/mL
AUC(0-t) ([1]; in vivo, 175 mg, Stage 2, 175 mg oral daily, 5 patients (2 visits each), read-out: AUC0-8 hr): 66.8 ng·h/mL
Tmax [1, 4]: 2 h
half-life ([1]; in vivo, 175 mg, Stage 2, 175 mg oral daily, n = 6, read-out: T1/2 (converted)): 600 min
Cmax [1, 5]: 2.84 ng/mL
Tmax [1, 5]: 1 h
Cmax [1, 6]: 4.33 ng/mL
AUC(0-t) ([1]; plasma, 75 mg, Stage 1, 75 mg oral, 9 patients, read-out: AUC0-8hr): 18.4 ng·h/mL
AUC(0-t) ([1]; plasma, 75 mg, Stage 1, 75 mg oral, 9 patients, read-out: AUC0-16hr): 29.8 ng·h/mL
Tmax [1, 6]: 2 h
half-life ([1]; plasma, 75 mg, Stage 1, 75 mg oral, n = 2, read-out: T½ (converted)): 168 min
Cmax [1, 7]: 10 ng/mL
AUC(0-t) ([1]; plasma, 75 mg, Stage 2, 75 mg oral daily, 1 patient (2 visits), read-out: AUC0-8 hr): 59 ng·h/mL
Tmax [1, 7]: 3 h
half-life ([1]; plasma, 75 mg, Stage 2, 75 mg oral daily, n = 1, read-out: T1/2 (converted)): 330 min
Cmax [1, 8]: 6.18 ng/mL
AUC(0-t) ([1]; plasma, 100 mg, Stage 1, 100 mg oral, 9 patients, read-out: AUC0-8hr): 29.6 ng·h/mL
AUC(0-t) ([1]; plasma, 100 mg, Stage 1, 100 mg oral, 9 patients, read-out: AUC0-16hr): 51.5 ng·h/mL
Tmax [1, 8]: 2 h
half-life ([1]; plasma, 100 mg, Stage 1, 100 mg oral, n = 5, read-out: T½ (converted)): 234 min
Cmax [1, 9]: 9.63 ng/mL
AUC(0-t) ([1]; plasma, 125 mg, Stage 1, 125 mg oral, 9 patients, read-out: AUC0-8hr): 43.1 ng·h/mL
AUC(0-t) ([1]; plasma, 125 mg, Stage 1, 125 mg oral, 9 patients, read-out: AUC0-16hr): 77.7 ng·h/mL
Tmax [1, 9]: 2 h
half-life ([1]; plasma, 125 mg, Stage 1, 125 mg oral, n = 4, read-out: T½ (converted)): 234 min
Cmax ([1]; plasma, 150 mg, Stage 1, 150 mg oral, 7 patients): 6.27 ng/mL
AUC(0-t) ([1]; plasma, 175 mg, Stage 1, 175 mg oral, 7 patients, read-out: AUC0-16hr): 91.2 ng·h/mL
Cmax [1, 10]: 15.1 ng/mL
AUC(0-t) ([1]; plasma, 200 mg, Stage 1, 200 mg oral, 6 patients, read-out: AUC0-8hr): 78.3 ng·h/mL
AUC(0-t) ([1]; plasma, 200 mg, Stage 1, 200 mg oral, 6 patients, read-out: AUC0-16hr): 157 ng·h/mL
Tmax [1, 10]: 2 h
half-life ([1]; plasma, 200 mg, Stage 1, 200 mg oral, n = 5, read-out: T½ (converted)): 540 min
bioavailability ([1]; plasma, Stage 1, oral dosing up to 200 mg (114 mg/m^2), compared with prior phase 1 IV data, read-out: Approximate oral bioavailability): ~0.1%
Patients responding within the effective dose range ([2]; 75 mg to 250 mg): 85%
Cumulative prokinetic response rate (CSBM within 24 hours of dosing) ([2]; 25 mg): 25%
Cumulative prokinetic response rate (CSBM within 24 hours of dosing) ([2]; 200 mg (maximum)): 80%
Median efficacious dose ([2]; Stage 2): 100 mg
Prokinetic response rate (CSBM within 24 hours of dosing on at least 2 of 3 days) ([2]; 75 mg): 26%
Prokinetic response rate (CSBM within 24 hours of dosing on at least 2 of 3 days) ([2]; 250 mg): 85.3%
CSBM, weekly average [2, 11]: 3.8 /week and 3.8 (2.4) /week
PAC-SYM [2, 11]: 1.1 (0.49)
Suppository use / rescue medication, weekly average ([2]; Stage 2, n = 34, fixed dose, mean (SD), baseline 1.8 (1.92)): 0.3 /week
SBM, weekly average [2, 11]: 4.5 /week
CSBM, weekly average ([2]; Stage 2, wash-out, mean (SD)): 1.8 (1.19) /week
PAC-SYM ([2]; Stage 2, wash-out, mean (SD)): 1.1 (0.60)
PAC-QOL ([2]; Stage 2, wash-out, mean (SD), baseline 1.4 (0.49)): 1.2 (0.63)
Rescue meds, weekly average ([2]; Stage 2, wash-out, mean (SD), baseline 1.8 (1.92)): 1.0 (1.40) /week
SBM, weekly average ([2]; Stage 2, wash-out, mean (SD)): 3.2 (1.80) /week
Stool consistency (Bristol stool scale 1-7) ([2]; Stage 2, wash-out, mean (SD), baseline 2.7 (1.20)): 2.8 (1.39)
Ease of passage (Ease of evacuation scale 1-7) ([2]; Stage 2, wash-out, mean (SD), baseline 3.2 (0.73)): 3.3 (0.81)
CSBM frequency, randomized cohort ([2]; group later randomized to placebo (n = 9), fixed dose period on drug, baseline 1.6): 3.3 CSBM/week
CSBM frequency, randomized cohort ([2]; group randomized to treatment (n = 6), fixed dose period, baseline 0.8): 3.2 CSBM/week
CSBM frequency, randomized cohort ([2]; group randomized to treatment (n = 6), randomized period 4-6 days, baseline 0.8): 2.4 CSBM/week
CSBM frequency, randomized cohort ([2]; group randomized to treatment (n = 6), washout, baseline 0.8): 0.9 CSBM/week
Mean dose required for a bowel response ([2]; patients with baseline constipation of <1 CSBM/week): 192 mg
Mean dose required for a bowel response ([2]; patients with baseline ≥1 CSBM/week): 120 mg
Formation of aggregates of αS (αS): inhibits the formation of αS aggregates
